Experimental data as given in patent publication US11180474B2 (BRISTOL-MYERS SQUIBB COMPANY, priority 2016, dated 2021).

biological target: T1, human TLR8 (Homo sapiens, UniProt Q9NR97); assay: TLR8 inhibition reporter assay (HEK-Blue cells, SEAP reporter, R848 stimulation); type: cell-based; conditions: HEK-Blue cells overexpressing human TLR8, R848 15.9 μM
T1 construct: host or cells: HEK-Blue cells
T1 sequence (Q9NR97 27-1041): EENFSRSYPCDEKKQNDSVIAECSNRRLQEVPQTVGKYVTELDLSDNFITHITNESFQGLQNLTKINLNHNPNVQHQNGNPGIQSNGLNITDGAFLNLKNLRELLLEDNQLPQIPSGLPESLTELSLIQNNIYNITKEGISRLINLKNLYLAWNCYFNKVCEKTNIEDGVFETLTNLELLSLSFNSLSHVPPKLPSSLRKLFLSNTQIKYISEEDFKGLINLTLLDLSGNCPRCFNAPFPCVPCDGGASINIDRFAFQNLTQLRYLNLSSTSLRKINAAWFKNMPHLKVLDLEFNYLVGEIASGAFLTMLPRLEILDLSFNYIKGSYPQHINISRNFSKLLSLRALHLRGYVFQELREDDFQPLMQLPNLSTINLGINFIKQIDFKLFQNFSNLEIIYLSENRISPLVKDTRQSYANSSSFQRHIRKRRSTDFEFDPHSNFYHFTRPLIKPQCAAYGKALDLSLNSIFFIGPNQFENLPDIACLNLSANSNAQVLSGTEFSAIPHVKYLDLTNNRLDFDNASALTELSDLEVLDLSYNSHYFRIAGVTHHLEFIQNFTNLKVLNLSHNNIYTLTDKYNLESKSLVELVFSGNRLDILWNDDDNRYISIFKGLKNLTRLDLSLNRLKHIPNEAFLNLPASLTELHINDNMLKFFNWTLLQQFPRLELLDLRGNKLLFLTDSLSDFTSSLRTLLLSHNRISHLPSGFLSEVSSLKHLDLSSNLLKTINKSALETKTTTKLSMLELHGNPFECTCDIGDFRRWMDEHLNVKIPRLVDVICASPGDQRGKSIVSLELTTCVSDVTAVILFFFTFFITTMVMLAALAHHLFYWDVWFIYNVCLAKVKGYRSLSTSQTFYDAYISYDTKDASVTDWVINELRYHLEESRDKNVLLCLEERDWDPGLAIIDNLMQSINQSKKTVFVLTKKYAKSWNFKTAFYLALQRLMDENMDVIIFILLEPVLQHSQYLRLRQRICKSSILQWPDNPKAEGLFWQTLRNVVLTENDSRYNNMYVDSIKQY
Outline: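 Cells (15000/well for TLR7, 20,000 for TLR8) were treated with compounds over 0.05 nM-50 μM final. After 22 h at 37° C, 5% CO2, SEAP was measured with HEK-Blue Detection reagent; percent inhibition was taken as reduction of agonist-plus-DMSO signal relative to a known inhibitor.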

Row | IC50 [nM] | Structure (SMILES)
1 | 128 | CNC(=O)CN1CCC(c2ccc3[nH]c(-c4ccc(OC)c(OC)c4)c(CC(F)F)c3c2)CC1 [Example 401, 2-(4-(3-(2,2-difluoroethyl)-2-(3,4-dimethoxyphenyl)-1H-indol-5-yl)piperidin-1-yl)-N-methylacetamide]
2 | 110 | COc1ccc(-c2[nH]c3ccc(C4CCN(CC(=O)N(C)C)CC4)cc3c2CC(F)F)cc1OC [Example 400, 2-(4-(3-(2,2-difluoroethyl)-2-(3,4-dimethoxyphenyl)-1H-indol-5-yl)piperidin-1-yl)-N,N-dimethylacetamide]
3 | 590 | COc1ccc(-c2[nH]c3ccc(C4CCN(CC(=O)NCCS(=O)(=O)O)CC4)cc3c2CC(F)(F)F)cc1OC [Example 386, 2-(2-(4-(2-(3,4-dimethoxyphenyl)-3-(2,2,2-trifluoroethyl)-1H-indol-5-yl)piperidin-1-yl)acetamido)ethane-1-sulfonic acid]
4 | 62 | COc1ccc(-c2[nH]c3ccc(C4CCN(CC(=O)NCCCN(C)C)CC4)cc3c2CC(F)(F)F)cc1OC [Example 382, 2-(4-(2-(3,4-dimethoxyphenyl)-3-(2,2,2-trifluoroethyl)-1H-indol-5-yl)piperidin-1-yl)-N-(3-(dimethylamino)propyl)acetamide]
5 | 2280 | COc1ccc(-c2[nH]c3ccc(C4CCN(C(=O)CN(C)C)CC4)cc3c2C)cc1OC [Example 402, 1-(4-(2-(3,4-dimethoxyphenyl)-3-methyl-1H-indol-5-yl)piperidin-1-yl)-2-(dimethylamino)ethan-1-one]
6 | 82 | COc1ccc(-c2[nH]c3ccc(C4CCN(C(=O)CN(C)C)CC4)cc3c2CC(F)F)cc1OC [Example 399, 1-(4-(3-(2,2-difluoroethyl)-2-(3,4-dimethoxyphenyl)-1H-indol-5-yl)piperidin-1-yl)-2-(dimethylamino)ethan-1-one]

Further lines, the compound ahead of its results:

Row | Structure (SMILES) | IC50 [nM]
7 | COc1ccc(-c2[nH]c3ccc(C4CCNCC4F)cc3c2C(C)C)cc1OC (racemic) [Example 319, 2-(3,4-dimethoxyphenyl)-5-(3-fluoropiperidin-4-yl)-3-isopropyl-1H-indole] | 46
8 | COc1ccc(-c2[nH]c3ccc(C4CCN(CC(=O)N5CCC[C@@H]5CO)CC4)cc3c2CC(F)(F)F)cc1OC [Example 371, (R)-2-(4-(2-(3,4-dimethoxyphenyl)-3-(2,2,2-trifluoroethyl)-1H-indol-5-yl)piperidin-1-yl)-1-(2-(hydroxymethyl)pyrrolidin-1-yl)ethan-1-one] | 52
9 | COc1ccc(-c2[nH]c3ccc(C4CCN(C(=O)C5CCN(C(C)=O)CC5)CC4)cc3c2CC(F)(F)F)cc1OC [Example 345, 1-(4-(4-(2-(3,4-dimethoxyphenyl)-3-(2,2,2-trifluoroethyl)-1H-indol-5-yl)piperidine-1-carbonyl)piperidin-1-yl)ethan-1-one] | 1030
10 | COc1ccc(-c2[nH]c3ccc(C4CCN(C(=O)NCc5ccco5)CC4)cc3c2CC(F)(F)F)cc1OC [Example 358, 4-(2-(3,4-dimethoxyphenyl)-3-(2,2,2-trifluoroethyl)-1H-indol-5-yl)-N-(furan-2-ylmethyl)piperidine-1-carboxamide] | 2920
11 | COc1ccc(-c2[nH]c3ccc(C4CCNC(=O)C4)cc3c2C(C)C)cc1OC (stereo not shown) [Example 326, 4-(2-(3,4-dimethoxyphenyl)-3-isopropyl-1H-indol-5-yl)piperidin-2-one] | 192
12 | COc1ccc(-c2[nH]c3ccc(C4CCN(CC(=O)N5CC[C@@H](N(C)C)C5)CC4)cc3c2CC(F)(F)F)cc1OC [Example 373, (R)-2-(4-(2-(3,4-dimethoxyphenyl)-3-(2,2,2-trifluoroethyl)-1H-indol-5-yl)piperidin-1-yl)-1-(3-(dimethylamino)pyrrolidin-1-yl)ethan-1-one] | 44
13 | COc1ccc(-c2[nH]c3ccc(C4CCN(CC(=O)NCCNC(C)=O)CC4)cc3c2CC(F)(F)F)cc1OC [Example 379, N-(2-acetamidoethyl)-2-(4-(2-(3,4-dimethoxyphenyl)-3-(2,2,2-trifluoroethyl)-1H-indol-5-yl)piperidin-1-yl)acetamide] | 39
14 | COc1ccc(-c2[nH]c3ccc(C4CCN(C(=O)NCCc5ccccc5)CC4)cc3c2CC(F)(F)F)cc1OC [Example 357, 4-(2-(3,4-dimethoxyphenyl)-3-(2,2,2-trifluoroethyl)-1H-indol-5-yl)-N-phenethylpiperidine-1-carboxamide] | 943
15 | CCN1CCCC(N2CCC(c3ccc4[nH]c(-c5ccc(OC)c(OC)c5)c(C)c4c3)CC2)C1 (stereo not shown) [Example 24, 2-(3,4-dimethoxyphenyl)-5-(1′-ethyl-[1,3′-bipiperidin]-4-yl)-3-methyl-1H-indole] | 27900
16 | COc1ccc(-c2[nH]c3ccc(C4CCN(C(=O)Cc5c[nH]cn5)CC4)cc3c2CC(F)(F)F)cc1OC [Example 334, 1-(4-(2-(3,4-dimethoxyphenyl)-3-(2,2,2-trifluoroethyl)-1H-indol-5-yl)piperidin-1-yl)-2-(1H-imidazol-4-yl)ethan-1-one] | 412
